Laboratory results as given in patent publication US9492508B2, “Parathyroid hormone analogs and uses thereof” (The General Hospital Corporation, priority 2010, dated 2016).
Square brackets hold non-standard residues; d marks the D form. Ends that are not written are not given here. hArg = N=C(N)NCCCC[C@H](N)C(=O)O; Aib = CC(C)(N)C(=O)O

How the values were obtained:
[1] = Peptide pharmacokinetics in TPTX rats
human PTH-1 receptor [2] = target: T1, human PTH-1 receptor (human, UniProt Q03431 27-593); experiment: radioligand competition, human PTHR1 in COS-7 membranes, RG conformation
T1 construct: whole, on cells; also called human PTHR1; human PTH receptor
T1 sequence (looked up): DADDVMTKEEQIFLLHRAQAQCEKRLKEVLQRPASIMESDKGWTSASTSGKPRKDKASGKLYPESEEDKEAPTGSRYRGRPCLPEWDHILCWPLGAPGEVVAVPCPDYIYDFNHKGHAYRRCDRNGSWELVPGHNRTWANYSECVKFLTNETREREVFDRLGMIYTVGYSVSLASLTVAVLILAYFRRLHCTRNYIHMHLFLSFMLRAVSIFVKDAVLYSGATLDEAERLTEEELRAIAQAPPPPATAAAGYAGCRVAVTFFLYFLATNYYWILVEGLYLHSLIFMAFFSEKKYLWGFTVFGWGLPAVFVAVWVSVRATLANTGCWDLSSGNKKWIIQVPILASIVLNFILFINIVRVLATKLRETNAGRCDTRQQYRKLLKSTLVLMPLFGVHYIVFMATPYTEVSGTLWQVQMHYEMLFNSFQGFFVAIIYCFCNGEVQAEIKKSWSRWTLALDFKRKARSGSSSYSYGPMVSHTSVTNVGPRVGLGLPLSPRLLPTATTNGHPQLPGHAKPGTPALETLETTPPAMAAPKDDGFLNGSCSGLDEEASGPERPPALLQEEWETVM
Experimental: (§1) Here, competition binding assays for the R⁰ and RG PTHR1 conformation were performed in membranes prepared from transfected COS-7 cells, as described by Dean et al., Mol Endocrinol 22:156-66, 2008. Data are means of three experiments, each performed in duplicate. Curves were fit to the data using Graph-Pad Prism 4.0.

human PTH-1 receptor [3] = target: T1, human PTH-1 receptor; experiment: radioligand competition, human PTHR1 in COS-7 membranes, R0 conformation
Experimental: as §1

rat PTH receptor = target: T2, rat PTH receptor (rat, UniProt P25961 27-591, limits assumed); experiment: radioligand displacement, rat PTHR1, R0 conformation
T2 construct: R0 and RG conformations assayed separately by the method of WO 2009/017809 or a similar one; also called rat PTHR1
T2 sequence (looked up): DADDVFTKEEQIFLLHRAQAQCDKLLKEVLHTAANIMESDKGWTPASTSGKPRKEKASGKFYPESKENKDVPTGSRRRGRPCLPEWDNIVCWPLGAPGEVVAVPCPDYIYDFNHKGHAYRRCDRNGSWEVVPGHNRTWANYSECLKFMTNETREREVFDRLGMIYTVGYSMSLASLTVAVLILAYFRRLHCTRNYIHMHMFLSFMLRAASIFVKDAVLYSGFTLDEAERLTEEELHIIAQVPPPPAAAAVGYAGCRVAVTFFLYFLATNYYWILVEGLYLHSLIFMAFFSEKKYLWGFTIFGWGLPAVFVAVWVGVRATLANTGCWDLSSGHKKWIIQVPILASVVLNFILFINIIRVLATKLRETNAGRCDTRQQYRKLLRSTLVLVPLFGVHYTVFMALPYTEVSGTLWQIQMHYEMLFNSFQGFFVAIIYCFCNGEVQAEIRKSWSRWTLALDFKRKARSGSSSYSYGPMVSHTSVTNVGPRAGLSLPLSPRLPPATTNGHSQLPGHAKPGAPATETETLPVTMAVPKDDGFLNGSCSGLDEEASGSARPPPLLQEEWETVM

[4] = Crl:CD(SD), rat, in vivo, iv, 24.3 nmol/kg
[5] = TPTX rats, 24.3 nmol/kg intravenously, mean

With `CC[C@H](C)[C@H](NC(=O)[C@H](CCC(=O)O)NC(=O)[C@H](CO)NC(=O)[C@@H](NC(=O)[C@@H](N)CO)C(C)C)C(=O)N[C@@H](CCC(N)=O)C(=O)N[C@@H](CC(C)C)C(=O)N[C@@H](CCSC)C(=O)N[C@@H](Cc1c[nH]cn1)C(=O)N[C@@H](CC(N)=O)C(=O)N[C@@H](CC(C)C)C(=O)NCC(=O)N[C@@H](CCCCN)C(=O)N[C@@H](Cc1c[nH]cn1)C(=O)N[C@@H](CC(C)C)C(=O)N[C@@H](CC(N)=O)C(=O)N[C@@H](CO)C(=O)N[C@@H](CCSC)C(=O)N[C@@H](CCC(=O)O)C(=O)N[C@@H](CCCNC(=N)N)C(=O)N[C@H](C(=O)N[C@@H](CCC(=O)O)C(=O)N[C@@H](Cc1c[nH]c2ccccc12)C(=O)N[C@@H](CC(C)C)C(=O)N[C@@H](CCCNC(=N)N)C(=O)N[C@@H](CCCCN)C(=O)N[C@@H](CCCCN)C(=O)N[C@@H](CC(C)C)C(=O)N[C@@H](CCC(N)=O)C(=O)N[C@@H](CC(=O)O)C(=O)N[C@H](C(=O)N[C@@H](Cc1c[nH]cn1)C(=O)N[C@@H](CC(N)=O)C(=O)N[C@@H](Cc1ccccc1)C(=O)N[C@H](C(=O)N[C@@H](C)C(=O)N[C@@H](CC(C)C)C(=O)NCC(=O)N[C@@H](C)C(=O)N1CCC[C@H]1C(=O)N[C@@H](CC(C)C)C(=O)N[C@@H](C)C(=O)N1CCC[C@H]1C(=O)N[C@@H](CCCNC(=N)N)C(=O)N[C@@H](CC(=O)O)C(=O)N[C@@H](C)C(=O)NCC(=O)N[C@@H](CO)C(=O)N[C@@H](CCC(N)=O)C(=O)N[C@@H](CCCNC(=N)N)C(=O)N1CCC[C@H]1C(=O)N[C@@H](CCCNC(=N)N)C(=O)N[C@@H](CCCCN)C(=O)N[C@@H](CCCCN)C(=O)N[C@@H](CCC(=O)O)C(=O)N[C@@H](CC(=O)O)C(=O)N[C@@H](CC(N)=O)C(=O)N[C@H](C(=O)N[C@@H](CC(C)C)C(=O)N[C@H](C(=O)N[C@@H](CCC(=O)O)C(=O)N[C@@H](CO)C(=O)N[C@@H](Cc1c[nH]cn1)C(=O)N[C@@H](CCC(=O)O)C(=O)N[C@@H](CCCCN)C(=O)N[C@@H](CO)C(=O)N[C@@H](CC(C)C)C(=O)NCC(=O)N[C@@H](CCC(=O)O)C(=O)N[C@@H](C)C(=O)N[C@@H](CC(=O)O)C(=O)N[C@@H](CCCCN)C(=O)N[C@@H](C)C(=O)N[C@@H](CC(=O)O)C(=O)N[C@H](C(=O)N[C@@H](CC(N)=O)C(=O)N[C@H](C(=O)N[C@@H](CC(C)C)C(=O)N[C@H](C(=O)N[C@@H](CCCCN)C(=O)N[C@@H](C)C(=O)N[C@@H](CCCCN)C(=O)N[C@@H](CO)C(=O)N[C@@H](CCC(N)=O)C(=O)O)[C@@H](C)O)C(C)C)C(C)C)C(C)C)C(C)C)C(C)C)C(C)C)C(C)C` [hPTH (1-84), hPTH(1-84)] the MRT [1, 4] was 3.58 min, the Vd [1, 4] was 0.0662 L/kg and the clearance [1, 4] was 17.2 mL/min/kg. For the same molecule, the half-life [1, 4] was 5.44 min, the AUCinf [1, 5] was 1663 pmol·min/mL and the AUClast [1, 5] was 1663 pmol·min/mL.

B1: Aib-SP-PTH ([Ala1,12,Aib3,Gln10,Har11,Trp14]PTH(1-14)/PTHrP(15-36)) (peptide)
peptide: AV[Aib]EIQLMHQ[hArg]AKWIQDLRRRFFLHHLIAEIHTAEI-NH2
modifications: N-terminus assumed
SMILES: CC[C@H](C)[C@H](NC(=O)[C@H](CCC(=O)O)NC(=O)[C@H](C)NC(=O)[C@@H](NC(=O)[C@H](Cc1c[nH]cn1)NC(=O)[C@@H](NC(=O)[C@H](CCC(=O)O)NC(=O)[C@H](C)NC(=O)[C@@H](NC(=O)[C@H](CC(C)C)NC(=O)[C@H](Cc1c[nH]cn1)NC(=O)[C@H](Cc1c[nH]cn1)NC(=O)[C@H](CC(C)C)NC(=O)[C@H](Cc1ccccc1)NC(=O)[C@H](Cc1ccccc1)NC(=O)[C@H](CCCNC(=N)N)NC(=O)[C@H](CCCNC(=N)N)NC(=O)[C@H](CCCNC(=N)N)NC(=O)[C@H](CC(C)C)NC(=O)[C@H](CC(=O)O)NC(=O)[C@H](CCC(N)=O)NC(=O)[C@@H](NC(=O)[C@H](Cc1c[nH]c2ccccc12)NC(=O)[C@H](CCCCN)NC(=O)[C@H](C)NC(=O)[C@H](CCCCNC(=N)N)NC(=O)[C@H](CCC(N)=O)NC(=O)[C@H](Cc1c[nH]cn1)NC(=O)[C@H](CCSC)NC(=O)[C@H](CC(C)C)NC(=O)[C@H](CCC(N)=O)NC(=O)[C@@H](NC(=O)[C@H](CCC(=O)O)NC(=O)C(C)(C)NC(=O)[C@@H](NC(=O)[C@H](C)N)C(C)C)[C@@H](C)CC)[C@@H](C)CC)[C@@H](C)CC)[C@@H](C)CC)[C@@H](C)O)C(N)=O
notes: Synthetic hybrid analog of human PTH(1-14) and human PTHrP(15-36); also called Super-potent Aib-PTH; M-PTH(1-14)/rP(15-36)NH2
In the case of B1, the IC50 (human PTH-1 receptor [2]) is reported as 0.69 nM, the IC50 (human PTH-1 receptor [3]) is reported as 1.8 nM and the IC50 (rat PTH receptor) is reported as 0.93 nM.
